Test results: PubChem BioAssay (NCI)
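How tested: cells in 96-well plates exposed to compound for 48 hours at five concentrations. At the TGI there is no net growth.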

Assays:
Experiment in all cases: DTP human tumour cell line panel, 48 h
786-0 renal = test system: 786-0 renal
UACC-257 melanoma = test system: UACC-257 melanoma
NCI-H226 lung = test system: NCI-H226 lung
HL-60(TB) leukemia = test system: HL-60(TB) leukemia
T-47D breast = test system: T-47D breast
UACC-62 melanoma = test system: UACC-62 melanoma
SK-OV-3 ovarian = test system: SK-OV-3 ovarian
SW-620 colon = test system: SW-620 colon
MOLT-4 leukemia = test system: MOLT-4 leukemia
SNB-19 CNS = test system: SNB-19 CNS
SF-268 CNS = test system: SF-268 CNS
MDA-N = test system: MDA-N

| SMILES | TGI (786-0 renal) [µM] | TGI (UACC-257 melanoma) [µM] | TGI (NCI-H226 lung) [µM] | TGI (HL-60(TB) leukemia) [µM] | TGI (T-47D breast) [µM] | TGI (UACC-62 melanoma) [µM] | TGI (SK-OV-3 ovarian) [µM] | TGI (SW-620 colon) [µM] | TGI (MOLT-4 leukemia) [µM] | TGI (SNB-19 CNS) [µM] | TGI (SF-268 CNS) [µM] | TGI (MDA-N) [µM] |
| --- | --- | --- | --- | --- | --- | --- | --- | --- | --- | --- | --- | --- |
| O=[N+]([O-])c1ccc2c(N=Nc3ccc4ccccc4c3O)c(O)cc(S(=O)(=O)O)c2c1 | > 81.1 | > 100 | 52.5 | 23.1 | > 100 | 71.9 | > 100 | > 100 | > 51 | > 83.2 | 63.9 |  |
| CCOC(=O)c1cc([N+](=O)[O-])cc([N+](=O)[O-])c1Sc1ncnc2nc[nH]c12 | 2.07 |  | > 100 | 4.33 | 3.34 | 21.3 | 23.3 | > 100 | > 26.8 | 43 | 16 | 5.28 |
| CCSc1[nH]c(NC(=NC(C)C)NC(=O)c2ccccc2)c(C(N)=O)c1C(N)=O | > 10 | > 10 |  | > 10 | > 10 | > 10 | > 10 | > 10 | > 10 |  | > 10 | > 10 |
| Cc1cc2nc(CC(C(F)(F)F)C(F)(F)F)oc2cc1C |  | 9.55 | 4.81 | 12.5 | 10.7 | 3.64 | > 44.4 | 2.83 |  | 17.5 | 8.2 | 5.85 |
| COc1ccccc1[C@@H]1CCC2CC[C@@H](c3ccccc3OC)[N+]21Cc1ccccc1 (stereo partly drawn) | 15.4 | 14.1 | 6.73 | 4.88 | 10.8 |  | 11.7 | 22.5 | 7.43 | 16.5 | 17.4 | 12.6 |
| Cc1cc(N)c2cc(NC(=O)Nc3ccc4nc(C)cc(N)c4c3)ccc2n1 | > 100 | > 100 | > 100 |  | > 100 | > 100 | > 100 | > 100 | > 100 | > 100 | > 100 | > 100 |
| COc1ccc2nc3c([N+](=O)[O-])ccc(NCCCN(C)C)c3c(N)c2c1 | 2.6 |  | 3.82 | 5.86 | 3.98 | 3.79 | 3.01 | 1.71 | 1.69 | 4.23 | 3.31 | 3.47 |
| CC(C)(/C=N/O)/[N+]([O-])=C/c1ccccc1 | > 100 | > 100 | > 100 |  | > 100 | > 100 | > 100 | > 100 | > 100 | > 100 | > 100 | > 100 |
| COC(=O)C1Cc2c([nH]c3ccccc23)-c2[nH]c3ccccc3c2CC(NC(C)=O)C(=O)N2CCCC2C(=O)N1 (stereo not drawn) | > 100 | > 100 | 18.3 |  | > 100 | > 100 | > 100 | > 100 | > 100 | > 100 | > 100 | > 100 |
| COc1ccc(Oc2nc3c(N)cc(C(F)(F)F)cc3nc2-c2ccccc2)cc1 | 56.4 | > 100 | 35.7 | > 100 | 26.9 | > 100 | 43.7 | > 100 | > 100 | > 100 | 64.5 |  |
